In test [1] the target is T1, baculovirus-expressed ALK (Homo sapiens, UniProt Q9UM73).
T1 construct: host or cells: baculovirus expression system
Briefly: ALK Kinase Assay (ELISA-type, time-resolved fluorescence). Type of test: biochemical. Put shortly: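 Plates coated with phospholipase C-γ substrate (10 μg/mL in TBS); reaction started with 30 ng/ml ALK and run 15 min at 37° C. Phosphorylated substrate detected with Eu-N1-labeled PT66 antibody. IC50 from sigmoidal variable-slope fit of percent inhibition vs log concentration.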
Background: In an ELISA, binding on a coated surface is turned into a signal by an enzyme label.

Test [2] concerns the target T2, c-Met (cytoplasmic domain) (Homo sapiens, UniProt P08581).
T2 construct: 10 ng/mL c-Met (cytoplasmic domain, Invitrogen Corporation #PV3143); purchased Invitrogen Corporation PV3143
Description: c-Met Kinase Assay (same methods as for ALK, with modifications). In kind it is biochemical. The essentials: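 Plates were coated with phospholipase C-γ substrate (10 μg/mL) in TBS, and the reaction was started with 10 ng/mL c-Met cytoplasmic domain and run 15 min at 37 °C. Phosphoproduct was detected with Eu-N1-labelled PT66 antibody. IC50 came from a variable-slope sigmoidal fit of percent inhibition vs log concentration.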

The mark [3] stands for this setting: ALK kinase inhibition, 1 μM ATP, read-out: ALK Activity.
[4] abbreviates: c-Met kinase inhibition, 1 μM ATP, read-out: cMet Activity.
The mark [5] stands for this setting: ALK kinase inhibition, 1 μM ATP (Km level), read-out: ALK Activity.
[6] abbreviates: c-Met kinase inhibition, 1 μM ATP (Km level), read-out: cMet Activity.
Where [7] appears, read: 1 μM ATP (Km level), read-out: ALK Activity (ALK Kinase Inhibition, IC50).
[8] abbreviates: 1 μM ATP (Km level), read-out: cMet Activity (c-Met Kinase Inhibition, IC50).
Setting [9] is: 1 μM ATP (Km level), 30 ng/ml ALK, 37° C., 15 minutes, read-out: ALK Activity (ALK kinase inhibition, IC50 class).
The mark [10] stands for this setting: 1 μM ATP (Km level), 10 ng/mL c-Met, read-out: cMet Activity (c-Met kinase inhibition, IC50 class).

Like-named read-outs stand apart in the source and are kept apart here. A value given as a limit tells only on which side of the number the result lay.

T2 sequence (P08581 956-1390 limits assumed): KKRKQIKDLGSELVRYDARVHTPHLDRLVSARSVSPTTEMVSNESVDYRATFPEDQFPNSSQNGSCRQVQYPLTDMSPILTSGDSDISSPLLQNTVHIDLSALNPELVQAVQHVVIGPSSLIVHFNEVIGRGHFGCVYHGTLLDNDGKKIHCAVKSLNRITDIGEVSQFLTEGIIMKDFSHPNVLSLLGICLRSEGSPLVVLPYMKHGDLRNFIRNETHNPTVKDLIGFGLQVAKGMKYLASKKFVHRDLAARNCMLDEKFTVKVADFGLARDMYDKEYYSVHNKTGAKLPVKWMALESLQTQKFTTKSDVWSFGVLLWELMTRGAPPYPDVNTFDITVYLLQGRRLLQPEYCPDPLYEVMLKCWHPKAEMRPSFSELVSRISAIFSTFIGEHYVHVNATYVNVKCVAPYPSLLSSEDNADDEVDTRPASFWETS
T1 sequence (Q9UM73 19-1620): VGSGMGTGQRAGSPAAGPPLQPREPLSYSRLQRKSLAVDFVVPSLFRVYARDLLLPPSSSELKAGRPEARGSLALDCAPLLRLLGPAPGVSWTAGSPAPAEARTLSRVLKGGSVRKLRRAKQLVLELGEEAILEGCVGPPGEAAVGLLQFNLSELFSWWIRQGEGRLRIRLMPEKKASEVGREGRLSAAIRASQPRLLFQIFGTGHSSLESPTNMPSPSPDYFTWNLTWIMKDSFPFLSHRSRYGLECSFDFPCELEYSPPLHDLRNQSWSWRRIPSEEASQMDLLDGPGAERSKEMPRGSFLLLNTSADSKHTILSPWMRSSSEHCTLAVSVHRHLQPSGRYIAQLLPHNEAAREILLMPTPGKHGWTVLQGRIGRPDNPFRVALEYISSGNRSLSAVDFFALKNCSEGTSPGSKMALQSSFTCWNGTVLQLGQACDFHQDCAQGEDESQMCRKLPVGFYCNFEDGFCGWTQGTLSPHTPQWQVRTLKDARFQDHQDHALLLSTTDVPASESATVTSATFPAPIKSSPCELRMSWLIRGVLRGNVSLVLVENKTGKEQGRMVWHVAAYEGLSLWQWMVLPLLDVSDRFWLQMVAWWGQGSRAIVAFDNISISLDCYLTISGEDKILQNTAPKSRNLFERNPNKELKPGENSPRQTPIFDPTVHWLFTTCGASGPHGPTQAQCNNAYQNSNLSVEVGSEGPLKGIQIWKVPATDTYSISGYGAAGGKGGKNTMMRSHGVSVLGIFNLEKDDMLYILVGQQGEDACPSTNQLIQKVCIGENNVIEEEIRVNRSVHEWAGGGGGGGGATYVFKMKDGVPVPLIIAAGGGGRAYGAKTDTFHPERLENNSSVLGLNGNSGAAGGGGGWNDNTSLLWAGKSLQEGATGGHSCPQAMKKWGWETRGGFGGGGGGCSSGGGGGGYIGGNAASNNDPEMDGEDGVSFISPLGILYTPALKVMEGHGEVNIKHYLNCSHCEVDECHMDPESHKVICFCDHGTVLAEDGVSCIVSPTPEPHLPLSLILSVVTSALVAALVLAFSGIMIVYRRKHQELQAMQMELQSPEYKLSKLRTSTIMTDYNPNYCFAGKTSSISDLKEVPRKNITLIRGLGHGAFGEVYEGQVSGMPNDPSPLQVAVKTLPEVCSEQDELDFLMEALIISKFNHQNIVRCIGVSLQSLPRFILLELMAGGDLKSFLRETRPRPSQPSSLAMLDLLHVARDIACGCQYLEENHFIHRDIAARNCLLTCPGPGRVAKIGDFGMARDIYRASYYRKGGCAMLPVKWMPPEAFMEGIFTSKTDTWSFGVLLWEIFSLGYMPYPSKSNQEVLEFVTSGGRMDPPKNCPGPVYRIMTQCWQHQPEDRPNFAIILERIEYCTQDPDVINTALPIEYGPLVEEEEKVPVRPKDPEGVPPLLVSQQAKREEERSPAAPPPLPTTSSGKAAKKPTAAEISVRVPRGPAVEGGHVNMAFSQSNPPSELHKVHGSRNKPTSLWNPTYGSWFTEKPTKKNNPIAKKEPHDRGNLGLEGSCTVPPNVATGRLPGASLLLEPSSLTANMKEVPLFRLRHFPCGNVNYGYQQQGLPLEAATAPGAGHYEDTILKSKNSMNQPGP

Take `CCN1CCNC(=O)c2ccc(Nc3ncc(Cl)c(Nc4ccccc4OCCN4CCOCC4)n3)cc21` [Example 1455, 8-{5-Chloro-4-[2-(2-morpholin-4-yl-ethoxy)-phenylamino]-pyrimidin-2-ylaminol}-1-ethyl-1,2,3,4-tetrahydro-benzo[e][1,4]diazepin-5-one]: the IC50 in test [1] (setting [3]) and in test [2] (setting [4]) was more than 10000 nM in each case.

With `CNCc1ccccc1Nc1nc(Nc2ccc3c(c2)CCOC(=O)N3C)ncc1Cl` [Example 1791, 2-[5-Chloro-4-(2-methylaminomethyl-phenylamino)-pyrimidin-2-ylamino]-5-methyl-8,9-dihydro-5H-7-oxa-5-aza-benzocyclohepten-6-one], the IC50 in test [1] (setting [3]) and in test [2] (setting [4]) was 1000 to 10000 nM in each case.

On to `C#CCNc1nc(Nc2ccc3c(c2)CCN(CC)CC3)ncc1Cl` [Example 153, 5-Chloro-N*2*-(3-ethyl-2,3,4,5-tetrahydro-1H-benzo[d]azepin-7-yl)-N*4*-prop-2-ynyl-pyrimidine-2,4-diamine], for which the IC50 in test [1] (setting [5]) and in test [2] (setting [6]) was 1000 to 10000 nM each time.

`COc1cc2c(cc1Nc1ncc(Cl)c(Nc3ccccc3S(=O)(=O)N3CCCC3)n1)NC(=O)CN(CC1CC1)C2` [Example 1668, 8-{5-Chloro-4-[2-(pyrrolidine-1-sulfonyl)-phenylamino]-pyrimidin-2-ylamino}-4-cyclopropylmethyl-7-methoxy-1,3,4,5-tetrahydro-benzo[e][1,4]diazepin-2-one]: the IC50 in test [1] (setting [3]) is less than 100 nM; in test [2] (setting [4]), 1000 to 10000 nM.

For the molecule `COc1cc(N2CCOCC2)ccc1Nc1nc(Nc2ccc3c(c2)CCN(C[C@@H](O)C(F)(F)F)CC3)ncc1Cl` [Example 333, (R)-3-{7-[5-Chloro-4-(2-methoxy-4-morpholin-4-yl-phenylamino)-pyrimidin-2-ylamino]-1,2,4,5-tetrahydro-benzo[d]azepin-3-yl}-1,1,1-trifluoro-propan-2-ol], the IC50 in test [1] (setting [5]) was less than 100 nM; in test [2] (setting [6]), 1000 to 10000 nM.

With `CCN1C(=O)CCCc2ccc(Nc3ncc(Cl)c(Nc4c(F)cccc4C(=O)NC)n3)cc21` [Example 358, 2-[5-Chloro-2-(1-ethyl-2-oxo-2,3,4,5-tetrahydro-1H-benzo[b]azepin-8-ylamino)pyrimidin-4-ylamino]-3-fluoro-N-methyl-benzamide], the IC50 in test [1] (setting [5]) and in test [2] (setting [6]) was less than 100 nM throughout.

`COCCN1C(=O)CCC(C)(C)c2ccc(Nc3ncc(Cl)c(N[C@H]4[C@@H](C(N)=O)[C@@H]5C=C[C@H]4C5)n3)cc21` [Example 1583, (1S,2S,3R,4R)-3-{5-Chloro-2-[1-(2-methoxy-ethyl)-5,5-dimethyl-2-oxo-2,3,4,5-tetrahydro-1H-benzo[b]azepin-8-ylamino]-pyrimidin-4-ylamino}-bicyclo[2.2.1]hept-5-ene-2-carboxylic acid amide]: the IC50 in test [1] (setting [3]) is less than 100 nM; in test [2] (setting [4]), 100 to 1000 nM.

Turning to `CCNC(=O)c1ccccc1Nc1nc(Nc2ccc3c(c2)CCN(CCOC)CC3)ncc1Cl` [Example 343, 2-{5-Chloro-2-[3-(2-methoxy-ethyl)-2,3,4,5-tetrahydro-1H-benzo[d]azepin-7-ylamino]-pyrimidin-4-ylamino}-N-ethyl-benzamide], the IC50 in test [1] (setting [5]) and in test [2] (setting [6]) was less than 100 nM each time.

With `COc1c(Nc2ncc(Cl)c(NC3C4C=CC(C4)C3C(N)=O)n2)ccc2c1CCCC(=O)N2C` (stereo not drawn) [Example 115, (2-exo, 3-exo)-3-[5-Chloro-2-(6-methoxy-1-methyl-2-oxo-2,3,4,5-tetrahydro-1H-benzo[b]azepin-7-ylamino)-pyrimidin-4-ylamino]-bicyclo[2.2.1]hept-5-ene-2-carboxylic acid amide], the IC50 was less than 100 nM in test [1] (setting [5]) and more than 10000 nM in test [2] (setting [6]).

As for “2-[2-(8-Amino-4H,6H-3,5,10b-triaza-benzo[e]azulen-5-yl)-5-chloro-pyrimidin-4-ylamino]-3-fluoro-N-methyl-benzamide [Example 1467]”, the IC50 in test [1] (setting [3]) and in test [2] (setting [4]) was 1000 to 10000 nM each time.

Consider `CS(=O)(=O)N[C@@H]1CCCC[C@H]1Nc1nc(Nc2ccc3c(c2)C2CCC3CN(C(=O)C(F)(F)F)C2)ncc1Cl` (mixture of isomers) [Example 292, N-((1R,2R)-2-{5-Chloro-2-[10-(2,2,2-trifluoro-acetyl)-10-aza-tricyclo[6.3.2.0*2,7*]trideca-2,4,6-trien-4-ylamino]-pyrimidin-4-ylamino}-cyclohexyl)-methanesulfonamide], for which the IC50 in test [1] (setting [5]) was less than 100 nM; in test [2] (setting [6]), 1000 to 10000 nM.

`COc1cc(N2CCN(C)CC2)ccc1Nc1nc(Nc2cccc3c2OCCCC3(C)C)ncc1Cl` [Example 872, 5-Chloro-N*2*-(5,5-dimethyl-2,3,4,5-tetrahydro-benzo[b]oxepin-9-yl)-N*4*-[2-methoxy-4-(4-methyl-piperazin-1-yl)-phenyl]-pyrimidine-2,4-diamine]: the IC50 in test [1] (setting [7]) was less than 100 nM; in test [2] (setting [8]) it was more than 10000 nM.

In the case of `CNC(=O)c1ccccc1Nc1nc(Nc2ccc3c(c2)CN(CCOC(C)=O)CCS3)ncc1Cl` [Example 527, Acetic acid 2-{2-[5-Chloro-4-(2-methylcarbamoyl-phenylamino)-pyrimidin-2-ylamino]-6,7-dihydro-9H-5-thia-8-aza-benzoylcyclohepten-8-yl}-ethyl ester], the IC50 in test [1] (setting [7]) and in test [2] (setting [8]) was less than 100 nM each time.

As for `O=C1CCCc2ccc(Nc3ncc(Cl)c(Nc4c(F)cccc4OC4CCOCC4)n3)cc2N1` [Example 1281, 8-{5-Chloro-4-[2-fluoro-6-(tetrahydro-pyran-4-yloxy)-phenylamino]-pyrimidin-2-ylamino}-1,3,4,5-tetrahydro-1-benzazepin-2-one], the results for the IC50 in test [1] (setting [9]) and in test [2] (setting [10]) were 100 to 1000 nM and 1000 to 10000 nM, respectively.

In the case of `COc1ccc(Nc2nc(Nc3ccc4c(c3)CCC(N3CCOCC3)CC4)ncc2Cl)c(-n2cccn2)c1` (centres unmarked) [Example 622, 5-Chloro-N*4*-(4-methoxy-2-pyrazol-1-yl-phenyl)-N*2*-(7-morpholin-4-yl-6,7,8,9-tetrahydro-5H-benzocyclohepten-2-yl)-pyrimidine-2,4-diamine], the IC50 was less than 100 nM in test [1] (setting [7]) and 1000 to 10000 nM in test [2] (setting [8]).

With `COc1cc2c(cc1Nc1ncc(Cl)c(Nc3ccccc3S(=O)(=O)N3CC[C@H](O)C3)n1)CCN(C[C@H](C)O)CC2` [Example 1555, (S)-1-(2-{5-Chloro-2-[3-((S)-2-hydroxy-propyl)-8-methoxy-2,3,4,5-tetrahydro-1H-3-benzazepin-7-ylamino]-pyrimidin-4-ylamino}-benzenesulfonyl)-pyrrolidin-3-ol], the figures for the IC50 in test [1] (setting [3]) and in test [2] (setting [4]) were less than 100 nM and 100 to 1000 nM, respectively.

For `CCN1C(=O)CCC(C)(C)c2ccc(Nc3ncc(Cl)c(Nc4ccccc4S(=O)(=O)C(C)C)n3)cc21` [Example 1243, 8-{5-Chloro-4-[2-(propane-2-sulfonyl)-phenylamino]-pyrimidin-2-ylamino}-1-ethyl-5,5-dimethyl-1,3,4,5-tetrahydro-1-benzazepin-2-one], the IC50 in test [1] (setting [9]) and in test [2] (setting [10]) was less than 100 nM in each case.

For `COc1cc2c(cc1Nc1ncc(Cl)c(N[C@@H]3CCCC[C@H]3NS(C)(=O)=O)n1)NC(=O)CN(C(C)=O)C2` [Example 1657, N-{(1R,2R)-2-[2-(4-Acetyl-7-methoxy-2-oxo-2,3,4,5-tetrahydro-1H-benzo[e][1,4]di-azepin-8-ylamino)-5-chloro-pyrimidin-4-ylamino]-cyclohexyl}-methanesulfonamide], the IC50 in test [1] (setting [3]) is less than 100 nM; in test [2] (setting [4]), more than 10000 nM.

Consider `COc1cc2c(cc1Nc1ncc(Cl)c(Nc3ccccc3S(=O)(=O)N(C)C)n1)CCN(Cc1nccn1C)CC2` [Example 1171, 2-{5-Chloro-2-[8-methoxy-3-(1-methyl-1H-imidazol-2-ylmethyl)-2,3,4,5-tetrahydro-1H-benzo[d]azepin-7-ylamino]-pyrimidin-4-ylamino}-N,N-dimethyl-benzenesulfonamide], for which the IC50 in test [1] (setting [9]) was less than 100 nM; in test [2] (setting [10]), 1000 to 10000 nM.

Take `CCN1C(=O)CCC(C)(C)c2ccc(Nc3ncc(Cl)c(Nc4c(F)cccc4OCC#N)n3)cc21` [Example 1520, {2-[5-Chloro-2-(1-ethyl-5,5-dimethyl-2-oxo-2,3,4,5-tetrahydro-1H-1-benzazepin-8-ylamino)-pyrimidin-4-ylamino]-3-fluoro-phenoxy}-acetonitrile]: the IC50 in test [1] (setting [3]) and in test [2] (setting [4]) was less than 100 nM each time.

`COc1c(Nc2ncc(Cl)c(Nc3ccccc3S(=O)(=O)N3CC[C@@H](O)C3)n2)ccc2c1CCCC(NCCO)C2` (stereo partly drawn) [Example 962, (R)-1-(2-{5-Chloro-2-[6-(2-hydroxy-ethylamino)-1-methoxy-6,7,8,9-tetrahydro-5H-benzocyclohepten-2-ylamino]-pyrimidin-4-ylamino}-benzenesulfonyl)-pyrrolidin-3-ol]: the IC50 is less than 100 nM in test [1] (setting [7]) and more than 10000 nM in test [2] (setting [8]).

On to `COc1cc2c(cc1Nc1ncc(Cl)c(N[C@H]3[C@@H](C(N)=O)[C@@H]4C=C[C@H]3C4)n1)CCN(C[C@H](C)O)CC2` [Example 1558, (1S,2S,3R,4R)-3-{5-Chloro-2-[3-((S)-2-hydroxy-propyl)-8-methoxy-2,3,4,5-tetrahydro-1H-3-benzazepin-7-ylamino]-pyrimidin-4-ylamino}-bicyclo[2.2.1]hept-5-ene-2-carboxylic acid amide], for which the IC50 in test [1] (setting [3]) is less than 100 nM; in test [2] (setting [4]), more than 10000 nM.
